Data taken from patent publication US6103888A, “Mammalian cationic proteins having lipopolysaccharide binding and anti-coagulant activity” (priority 1999, dated 2000).

How the values were obtained:
[1] = test system: Salmonella minnesota ReLPS sensitized sheep erythrocytes; test: LPS hemagglutination assay (MAC); type: binding
Procedure: For hemagglutination assays, erythrocytes were sensitized with LPS as follows. One ml of 1% erythrocyte suspension (human 0 type, C3H/HeN mouse or sheep) was mixed with 0.2 ml of LPS solution and incubated at 37° C. for 30 min, followed by washing with phosphate buffered saline (PBS), and then the concentration of suspension was adjusted to 1.0%. In the case of S-LPS, the solution was heated at 100° C. for 1 hour before sensitization of erythrocytes. […] Activity of CAP was expressed as a minimum agglutinating concentration (MAC) of CAP. According to the method of Kirikae et al. (1986) Microbiol. Immunol. 30:269-274, 50 μl of 2-fold serial dilution of Re-LPS was added to 50 μl of 1.0% rabbit erythrocyte suspension, and incubated at 37° C. for 3 hour. Minimum agglutinating concentration of Re-LPS was expressed as 1 HA unit.

Human plasma = test: Prothrombin time (PT); type: biochemical
Procedure: Prothrombin time (PT). Human plasma (100 μl) was incubated with 100 μl of each peptide at 37° C. for 3 min., then 100 μl of tissue factor (250 μg/ml) CaCl2 was added and clotting time was measured.

Salmonella minnesota Re = test: Antibacterial CFU assay
prothrombin (factor II) [2] = biological target: prothrombin (factor II) (Homo sapiens, UniProt P00734); test: Prothrombin activation by Echis Carinatus venom (ECV); type: biochemical
Procedure: Prothrombin activation by Echis Carinatus venom (ECV). A reaction mixture of prothrombin (factor II) (0.1 unit/ml, 200 μl), ECV (1 unit/ml, 200 μl), various concentration of peptide (70 μl), 50 μl of 25 mM-CaCl2 and 180 μl of Tris buffer was incubated at 37° C. for 10 min. To 300 μl of the reaction mixture, 60 μl of 4 mM-thrombin substrate and 240 μl of buffer was added and further incubated for 15 min.

Salmonella typhimurium = test: Antibacterial CFU assay; conditions: for anti-bacterial activity (CFU), in words: Salmonella typhimurium, smooth strain; for effect on CFU of S. typhimurium: high concentrations alone and in various combinations
[3] = test system: thioglycollate-stimulated murine peritoneal macrophages; test: LPS-induced tissue factor generation by macrophages (clotting assay); type: cell-based; conditions: peptides 1 μg/ml incubated with S. minnesota smooth LPS 5 minutes; 6 hr
Procedure: Tissue factor assay. Salmonella minnesota smooth LPS was incubated with each peptide (1 μg/ml) for 5 min., then the mixture was added to peritoneal murine macrophages obtained 4 days after thioglycollate stimulation. Cells were cultured for 6 hours prior to assay of tissue factor by clotting assay.
Various concentrations of Salmonella minnesota smooth LPS were incubated with each peptide (197 (RNIP), 36-1, 32-1, and 50-2) at 37° C. for 5 minutes prior to mixing with thioglycollate-stimulated murine peritoneal macrophages. Production of tissue factor after 6 hr. was measured by clotting assay. […] In the absence of LPS no tissue factor is synthesized by these cells.

RAW 264.7 cells = test: LPS- or IFNγ-induced reactive nitrogen intermediate (RNI) production, Griess nitrite assay; type: cell-based, murine; conditions: macrophages / RAW 264.7 cells
Procedure: From the sequence of the CAP18 cDNA, it was apparent that the putative N-terminal peptide of CAP18 was in fact an internal fragment of the CAP18 protein. We therefore tried to reconfirm the original protein sequence. Neutrophil-derived heparin bound cationic proteins were prepared as described above and applied to a C18 reverse phase HPLC (FIG. 1). We sequenced the major peaks. Peaks at fractions 14.5 and 15.2 correspond to defensins MCP1 and MCP2 (Territo et al. (1989) J. Clin. Invest. 84:2017-2019), respectively. Fraction 25.8 is macrophage related protein 14 (MRP14) (Odink et al. (1987) Nature 330:80-82). The fraction at 20.3 minutes corresponds to a fragment of CAP18 of approximately 4-5 kD. […] The murine macrophage cell line RAW 264.7 (obtained from ATCC) and thioglycollate-elicited murine peritoneal exudate cells are used to produce RNI. Cells are cultured at 1×10^6 /ml. in RPMI-1640 +2.5% FCS in 24 well plates in the presence or absence of different concentrations of LPS or murine rlFNγ. After 24 hr. incubation at 37° C., the cell free supernatant is collected and tested for the presence of RNI. Accumulation of nitrite in the medium is measured by a calorimetric assay based on the Griess reaction (Green et al. (1982) Anal. Biochem. 126:11) using sodium nitrite as standards. Sample (50 μl) is mixed with 50 μl of Griess reagent (1% sulfanilamide, 0.1% naphthalene diamine dihydrochloride, 2.5% H3 PO4) and after 10 min. at room temperature absorbance is read at 570 nm.

prothrombin (factor II) [4] = biological target: prothrombin (factor II)
tissue factor generation = test: Effect of CAP-37 on LPS-induced tissue factor generation; type: cell-based; conditions: for Tissue factor units / Tissue factor units, value in parentheses (ratio to control): CAP-37 15 HA
Procedure: Table 6 presents a comparison of the effect of RNIP, CAP18, and defensins HP-1 and HP-2 (Territo et al. (1989) J. Clin. Invest. 84:2017-2019) on LPS-induced tissue factor generation. Tissue factor assays were performed as follows. Mouse peritoneal cells were elicted with an intraperitoneal injection of thioglycolate medium and harvested 5-days later by irrigation with pyrogen-free saline. The cells were washed with RPMI 1640 medium, counted and resuspended at a concentration of 1.5-2.0×10^6 /ml in serum-free RPMI medium containing glutamine (0.29 mg/ml), penicillin (50 units/ml) and streptomycin ([…]). Adherent cells were prepared by incubating 10 ml of a cell suspension (in RPMI 1640 media in sterile culture bottle (Nunclon, 50 ml, Inter Med) for 60 min. at 37° C. in a 5% CO2 atmosphere. The plastic adherent cells were recovered by scraping of the bottle with a sterile rubber policeman. The adherent cells were then washed twice with RPMI media, resuspended in serum-free medium (1×10^6 /ml) in culture tube (Nunc cryotube, Inter Med), and stimulated with graded doses of LPS for 6 hr. at 37° C. in a 5% CO2. The cell suspension was centrifuged and cell pellet was frozen at -80° C. until clotting assays were run.
Veronal buffered saline (VBS) was added to the cell pellet, lysed by 3 cycles of freeze/thaw and sonicated for 10 sec with a hand-held sonicator microbe (Handy Sonic, model UR-20P, Tomy Seiko LTD, Tokyo). Tissue factor activity was tested in modified unactivated partial thromboplastin time (7). One tenth ml of cell lysate (1×10^6 /ml) was preincubated with mouse plasma at 37° C. for 3 min. Then 0.1 ml of 25 mM-CaCl2 which contains phospholipid was added to the mixture and clotting time was measured using a fibrometer (Bio Quest Division, Becton Dickinson, Cokeysville, USA). A standard curve obtained from serial two-fold dilutions of rabbit brain thromboplastic (Simplastin, Ono Pharmaceutical Co.) was used to transpose tissue factor activity into arbitrary tissue factor units (1 μg/ml) suspension of rabbit brain was assigned a value of 1,000 units).
.dagger.LPS was incubated with CAP37 at 37° C. for 2 hours, and th
mixture was added to cells, then cultured for 6 hours.

## 21-1: synthetic rabbit RNIP fragment, amino acids 135-151 of SEQ ID NO:4 (GLRKRLRKFRNKIKEKL) [Peptide 21-1]
[1]
  Hemagglutination [MAC], minimum agglutinating concentration: > 125 µg/mL

## 32-1: synthetic rabbit RNIP fragment, amino acids 135-143 of SEQ ID NO:4 (GLRKRLRKF) [Peptide 32-1]
Human plasma
  inhibition of the prothrombin time (PT), in words: inactive
Salmonella minnesota Re
  anti-bacterial activity (CFU), in words: not active
Prothrombin (factor II) [2]
  inhibition of Echis carinatus venom activation of purified factor II to IIa (in words): inactive
Salmonella typhimurium; S. typhimurium pretreated with peptide 32-1, then peptide 197
  effect of pretreatment on bacterial killing by peptide 197: no inhibition or augmentation
Salmonella typhimurium
  anti-bacterial activity (CFU), in words: not active
  effect on CFU of S. typhimurium: No effect
[1]
  Hemagglutination [MAC], minimum agglutinating concentration: > 125 µg/mL
[3]
  inhibition of LPS induced tissue factor (in words): fail to inhibit

## 34-1: synthetic rabbit RNIP fragment, amino acids 140-166 of SEQ ID NO:4 (LRKFRNKIKEKLKKIGQKIQGLLPKLA) [Peptide 34-1]
[1]
  Hemagglutination [MAC], minimum agglutinating concentration: > 125 µg/mL

## 50-1: synthetic rabbit RNIP fragment, amino acids 147-171 of SEQ ID NO:4 (IKEKLKKIGQKIQGLLPKLAPRTDY) [Peptide 50-1]
[1]
  Hemagglutination [MAC], minimum agglutinating concentration: > 125 µg/mL

## 50-2: synthetic rabbit RNIP fragment, amino acids 147-171 of SEQ ID NO:4 (IKEKLKKIGQKIQGLLPKLAPRTDY) [Peptide 50-2]
Human plasma
  inhibition of the prothrombin time (PT), in words: inactive
Salmonella minnesota Re
  anti-bacterial activity (CFU), in words: not active
Prothrombin (factor II) [2]
  inhibition of Echis carinatus venom activation of purified factor II to IIa (in words): inactive
Salmonella typhimurium
  anti-bacterial activity (CFU), in words: not active
  effect on CFU of S. typhimurium: No effect
[1]
  Hemagglutination [MAC], minimum agglutinating concentration: > 125 µg/mL
[3]
  inhibition of LPS induced tissue factor (in words): fail to inhibit

## 52-1: synthetic rabbit RNIP fragment, amino acids 143-169 of SEQ ID NO:4 (FRNKIKEKLKKIGQKIQGLLPKLAPRT) [Peptide 52-1]
[1]
  Hemagglutination [MAC], minimum agglutinating concentration: > 125 µg/mL

## 52-2: synthetic rabbit RNIP fragment, amino acids 143-170 of SEQ ID NO:4 (FRNKIKEKLKKIGQKIQGLLPKLAPRTD) [Peptide 52-2]
[1]
  Hemagglutination [MAC], minimum agglutinating concentration: > 125 µg/mL

## 52-3: synthetic rabbit RNIP fragment, printed as amino acids 132-171 of SEQ ID NO:4 (EPTGLRKRLRKFRNKIKEKLKKIGQKIQGLLPKLAPRTDY) [Peptide 52-3]
[1]
  Hemagglutination [MAC], minimum agglutinating concentration: > 125 µg/mL

## 54-1: synthetic rabbit RNIP fragment, amino acids 139-170 of SEQ ID NO:4 (RLRKFRNKIKEKLKKIGQKIQGLLPKLAPRTD) [Peptide 54-1]
[1]
  Hemagglutination [MAC], minimum agglutinating concentration: > 125 µg/mL

## 54-2: synthetic rabbit RNIP fragment, amino acids 139-171 of SEQ ID NO:4 (RLRKFRNKIKEKLKKIGQKIQGLLPKLAPRTDY) [Peptide 54-2]
[1]
  Hemagglutination [MAC], minimum agglutinating concentration: > 125 µg/mL

## 187: synthetic rabbit RNIP fragment, amino acids 151-171 of SEQ ID NO:4 (LKKIGQKIQGLLPKLAPRTDY) [Peptide 187]
[1]
  Hemagglutination [MAC], minimum agglutinating concentration: > 125 µg/mL
RAW 264.7 cells
  inhibition of LPS-induced RNI production (in words): inactive

## polymyxin B [reference compound]
RAW 264.7 cells
  inhibition of LPS-induced RNI production (in words): inhibition

B1: synthetic rabbit RNIP peptide 197 (peptide)
peptide: GLRKRLRKFRNKIKEKLKKIGQKIQGLLPKLAPRTDY
Prothrombin (factor II) [4]
  IC50, factor II activation by Xa: 50 nM

B2: CAP-37: another cationic peptide, azurocidin (CAP37) (Morgan et al.) (protein, UniProt P20160 27-248, looked up)
Azurocidin: IVGGRKARPRQFPFLASIQNQGRHFCGGALIHARFVMTAASCFQSQNPGVSTVVLGAYDLRRRERQSRQTFSISSMSENGYDPQQNLNDLMLLQLDREANLTSSVTILPLPLQNATVEAGTRCQVAGWGSQRSGGRLSRFPRFVNVTVTPEDQCRPNNVCTGVLTRRGGICNGDGGTPLVCEGLAHGVASFSLGPCGRGPDFFTRVALFRDWIDGVLNNPGP
Tissue factor generation
  inhibition of tissue factor generation (in words): unable to inhibit tissue factor generation
Tissue factor generation; LPS 0.1 μg/ml
  Tissue factor units: 383 ± 307 units /1 × 10^5 cells
  Tissue factor units, value in parentheses (ratio to control): 2.3
Tissue factor generation; LPS 1.0 μg/ml
  Tissue factor units: 648 ± 343 units /1 × 10^5 cells
  Tissue factor units, value in parentheses (ratio to control): 3.9
Tissue factor generation; no LPS
  Tissue factor units: 183 ± 67 units /1 × 10^5 cells
  Tissue factor units, value in parentheses (ratio to control): 1.1

B3: synthetic rabbit RNIP peptide 36-1 (peptide)
peptide: GLRKRLRKFRNKIKEKLKKIGQKIQGLLPKLA
Prothrombin (factor II) [4]
  IC50, factor II activation by Xa: < 30 nM
